From US20260217701A1, “SELECTIVE BET INHIBITORS AND USES THEREOF” (Tay Therapeutics Limited, priority 2022, published 2026)

System: imiquimod-induced psoriasis
Experiment: Imiquimod-induced psoriasis model
Type: in vivo, mice
Settings: for Mean scores of the presence of peeling on the skin of animals at the area of induction of psoriasis / Mean scores of the presence of erythema on the skin of animals at the area of induction of psoriasis / Mean scores of the presence of induration on the skin of animals at the area of induction of psoriasis: mean ± SEM; for Mean PASI Scores in IMI-Psoriasis Model: mice
How it was run: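 Mice given topical imiquimod (5% cream) daily on depilated backs Days 1–14; Compound A in 5% DMSO/40% PEG-400/55% saline from Day 8, clobetasol topical as reference. Daily PASI (erythema, induration, peeling, each 0–4, summed) Days 8–15; spleen weight, open-field behaviour, serum IL-1B, IL-6, IL-17, TNF-α, IL-22, IL-23 at Day 15.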

[1] = IMI + 10 mg/kg, D8 (before start of treatment)

COCCn1cc(-c2ccccc2)c(-c2cn(C)c(=O)c3[nH]c(-c4cnn(C(F)(F)F)c4)cc23)cc1=O [Compound B, 4-(1-(2-methoxyethyl)-2-oxo-5-phenyl-1,2-dihydropyridin-4-yl)-6-methyl-2-(1-(trifluoromethyl)-1H-pyrazol-4-yl)-1,6-dihydro-7H-pyrrolo[2,3-c]pyridin-7-one]
Mean scores of the presence of peeling on the skin of animals at the area of induction of psoriasis (IMI + 3 mg/kg, D15): 1.3 ± 0.3 | Mean scores of the presence of erythema on the skin of animals at the area of induction of psoriasis [1]: 2.1 ± 0.1 | Mean scores of the presence of induration on the skin of animals at the area of induction of psoriasis [1]: 2.8 ± 0.2 | Mean scores of the presence of peeling on the skin of animals at the area of induction of psoriasis [1]: 2.4 ± 0.3 | Mean scores of the presence of erythema on the skin of animals at the area of induction of psoriasis (IMI + 10 mg/kg, D9): 1.5 ± 0.2 | Mean scores of the presence of induration on the skin of animals at the area of induction of psoriasis (IMI + 10 mg/kg, D9): 2.0 ± 0.2 | Mean scores of the presence of peeling on the skin of animals at the area of induction of psoriasis (IMI + 10 mg/kg, D9): 2.1 ± 0.2 | Mean scores of the presence of erythema on the skin of animals at the area of induction of psoriasis (IMI + 10 mg/kg, D10): 1.8 ± 0.2 | Mean scores of the presence of induration on the skin of animals at the area of induction of psoriasis (IMI + 10 mg/kg, D10): 2.1 ± 0.2 | Mean scores of the presence of peeling on the skin of animals at the area of induction of psoriasis (IMI + 10 mg/kg, D10): 2.0 ± 0.3 | Mean scores of the presence of erythema on the skin of animals at the area of induction of psoriasis (IMI + 10 mg/kg, D11): 1.5 ± 0.2 | Mean scores of the presence of induration on the skin of animals at the area of induction of psoriasis (IMI + 10 mg/kg, D11): 1.5 ± 0.2 | Mean scores of the presence of peeling on the skin of animals at the area of induction of psoriasis (IMI + 10 mg/kg, D11): 1.9 ± 0.1 | Mean scores of the presence of erythema on the skin of animals at the area of induction of psoriasis (IMI + 10 mg/kg, D12): 0.9 ± 0.3 | Mean scores of the presence of induration on the skin of animals at the area of induction of psoriasis (IMI + 10 mg/kg, D12): 1.1 ± 0.1 | Mean scores of the presence of peeling on the skin of animals at the area of induction of psoriasis (IMI + 10 mg/kg, D12): 1.0 ± 0.2 | Mean scores of the presence of erythema on the skin of animals at the area of induction of psoriasis (IMI + 10 mg/kg, D13): 0.6 ± 0.3 | Mean scores of the presence of induration on the skin of animals at the area of induction of psoriasis (IMI + 10 mg/kg, D13): 1.0 ± 0.0 | Mean scores of the presence of peeling on the skin of animals at the area of induction of psoriasis (IMI + 10 mg/kg, D13): 0.4 ± 0.2 | Mean scores of the presence of erythema on the skin of animals at the area of induction of psoriasis (IMI + 10 mg/kg, D14): 0.1 ± 0.1 | Mean scores of the presence of induration on the skin of animals at the area of induction of psoriasis (IMI + 10 mg/kg, D14): 0.6 ± 0.2 | Mean scores of the presence of peeling on the skin of animals at the area of induction of psoriasis (IMI + 10 mg/kg, D14): 0.5 ± 0.2 | Mean scores of the presence of erythema on the skin of animals at the area of induction of psoriasis (IMI + 10 mg/kg, D15): 0.1 ± 0.1 | Mean scores of the presence of induration on the skin of animals at the area of induction of psoriasis (IMI + 10 mg/kg, D15): 0.4 ± 0.2 | Mean scores of the presence of peeling on the skin of animals at the area of induction of psoriasis (IMI + 10 mg/kg, D15): 0.4 ± 0.2 | Mean PASI Scores in IMI-Psoriasis Model (IMI + 1 mg/kg, D8 (before start of treatment)): 7.0 ± 0.3 | Mean PASI Scores in IMI-Psoriasis Model (IMI + 1 mg/kg, D9): 6.8 ± 0.6 | Mean PASI Scores in IMI-Psoriasis Model (IMI + 1 mg/kg, D10): 6.0 ± 0.3 | Mean PASI Scores in IMI-Psoriasis Model (IMI + 1 mg/kg, D11): 6.5 ± 0.5 | Mean PASI Scores in IMI-Psoriasis Model (IMI + 1 mg/kg, D12): 5.6 ± 0.3 | Mean PASI Scores in IMI-Psoriasis Model (IMI + 1 mg/kg, D13): 5.6 ± 0.5 | Mean PASI Scores in IMI-Psoriasis Model (IMI + 1 mg/kg, D14): 5.6 ± 0.4 | Mean PASI Scores in IMI-Psoriasis Model (IMI + 1 mg/kg, D15): 5.1 ± 0.4 | Mean PASI Scores in IMI-Psoriasis Model (IMI + 3 mg/kg, D8 (before start of treatment)): 7.4 ± 0.3 | Mean PASI Scores in IMI-Psoriasis Model (IMI + 3 mg/kg, D9): 6.0 ± 0.4 | Mean PASI Scores in IMI-Psoriasis Model (IMI + 3 mg/kg, D10): 5.8 ± 0.4 | Mean PASI Scores in IMI-Psoriasis Model (IMI + 3 mg/kg, D11): 5.4 ± 0.3 | Mean PASI Scores in IMI-Psoriasis Model (IMI + 3 mg/kg, D12): 5.4 ± 0.3 | Mean PASI Scores in IMI-Psoriasis Model (IMI + 3 mg/kg, D13): 5.0 ± 0.4 | Mean PASI Scores in IMI-Psoriasis Model (IMI + 3 mg/kg, D14): 4.6 ± 0.4 | Mean PASI Scores in IMI-Psoriasis Model (IMI + 3 mg/kg, D15): 3.5 ± 0.5 | Mean PASI Scores in IMI-Psoriasis Model [1]: 7.3 ± 0.4 | Mean PASI Scores in IMI-Psoriasis Model (IMI + 10 mg/kg, D9): 5.6 ± 0.4 | Mean PASI Scores in IMI-Psoriasis Model (IMI + 10 mg/kg, D10): 5.9 ± 0.5 | Mean PASI Scores in IMI-Psoriasis Model (IMI + 10 mg/kg, D11): 4.9 ± 0.3 | Mean PASI Scores in IMI-Psoriasis Model (IMI + 10 mg/kg, D12): 3.1 ± 0.5 | Mean PASI Scores in IMI-Psoriasis Model (IMI + 10 mg/kg, D13): 2.0 ± 0.4 | Mean PASI Scores in IMI-Psoriasis Model (IMI + 10 mg/kg, D14): 1.3 ± 0.3 | Mean PASI Scores in IMI-Psoriasis Model (IMI + 10 mg/kg, D15): 0.9 ± 0.4 | erythema, induration and peeling of the skin at the area of induction (mouse, in vivo): significantly reduced | use of enrichment (nesting) (relative to vehicle-treated psoriasis animals): similarly restored use of nesting
